pIC50: −log10 of the molar value.
Target: T1, rat NaPi-2b (Rattus norvegicus, UniProt Q9JJ09)
T1 construct: expressed in transfected cells; host or cells: Xenopus oocytes injected with cRNA
T1 sequence (Q9JJ09 1-695): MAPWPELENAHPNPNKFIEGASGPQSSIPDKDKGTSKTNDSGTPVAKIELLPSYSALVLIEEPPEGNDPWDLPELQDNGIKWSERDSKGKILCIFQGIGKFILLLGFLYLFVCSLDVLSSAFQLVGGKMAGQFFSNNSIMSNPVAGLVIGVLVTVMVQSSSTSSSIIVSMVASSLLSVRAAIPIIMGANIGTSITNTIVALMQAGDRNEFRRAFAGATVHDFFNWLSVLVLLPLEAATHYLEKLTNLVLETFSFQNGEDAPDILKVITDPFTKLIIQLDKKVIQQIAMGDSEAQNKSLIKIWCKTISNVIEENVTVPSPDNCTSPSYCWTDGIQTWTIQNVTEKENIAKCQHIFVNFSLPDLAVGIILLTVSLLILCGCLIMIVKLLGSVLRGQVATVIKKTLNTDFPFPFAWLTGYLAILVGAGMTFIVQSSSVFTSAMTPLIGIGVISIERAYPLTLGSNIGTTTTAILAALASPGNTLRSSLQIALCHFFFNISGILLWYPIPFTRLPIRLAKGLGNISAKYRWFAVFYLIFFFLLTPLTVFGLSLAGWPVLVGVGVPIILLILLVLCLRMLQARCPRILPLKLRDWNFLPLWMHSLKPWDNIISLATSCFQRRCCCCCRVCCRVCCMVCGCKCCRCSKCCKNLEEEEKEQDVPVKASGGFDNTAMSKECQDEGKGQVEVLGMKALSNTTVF
Assay: Sodium-dependent phosphate uptake of Xenopus oocytes which expressed NaPi-2b (32P)
Assay type: cell-based
Settings: Xenopus oocytes expressing rat NaPi-2b, 32P radioactive phosphorus; read-out: IC50 (phosphate uptake inhibitory activity)
Outline: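 Steps: rat NaPi-2b cDNA cloned from small intestine; cRNA made and injected into oocytes; 2-day expression; 32P phosphate uptake with compound; % inhibition at 300/100 μM taken from one curve.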

`CC(O)CN(Cc1ccc(C(=O)Nc2ccc(Br)cc2C(=O)N/N=C/c2ccc(F)cc2)cc1)CC(C)O` (stereo not drawn) [Compound 719, 4-{[Bis-(2-hydroxy-propyl)-amino]-methyl}-N-[4-bromo-2-(4-fluoro-benzylidene-hydrazinocarbonyl)-phenyl]-benzamide] and `COc1ccc(/C=N/NC(=O)c2cc(Br)ccc2NC(=O)c2ccc(CN(CC(C)O)CC(C)O)cc2)cc1` (stereo not drawn) [Compound 722, 4-{[Bis-(2-hydroxy-propyl)-amino]-methyl}-N-[4-bromo-2-(4-methoxy-benzylidene-hydrazinocarbonyl)-phenyl]-benzamide] are within 0.2 log units of each other in pIC50: 5.02 for the first, 4.89 for the second.

First: CC(O)CN(Cc1ccc(C(=O)Nc2ccc(Br)cc2C(=O)N/N=C/c2cccc(F)c2)cc1)CC(C)O (stereo not drawn) [Compound 720, 4-{[Bis-(2-hydroxy-propyl)-amino]-methyl}-N-[4-bromo-2-(3-fluoro-benzylidene-hydrazinocarbonyl)-phenyl]-benzamide]
Second: COc1cccc(/C=N/NC(=O)c2cc(Br)ccc2NC(=O)c2ccc(CN(CC(C)O)CC(C)O)cc2)c1 (stereo not drawn) [Compound 723, 4-{[Bis-(2-hydroxy-propyl)-amino]-methyl}-N-[4-bromo-2-(3-methoxy-benzylidene-hydrazinocarbonyl)-phenyl]-benzamide]
The pIC50 of the first is 0.71 log units higher: 5.45 for the first, 4.74 for the second.

Compared with `CC(O)CN(Cc1ccc(C(=O)Nc2ccc(Br)cc2C(=O)N/N=C/c2ccc(Cl)c(C(F)(F)F)c2)cc1)CC(C)O` (stereo not drawn) [Compound 721, 4-{[Bis-(2-hydroxy-propyl)-amino]-methyl}-N-[4-bromo-2-(4-chloro-3-trifluoromethyl-benzylidene-hydrazinocarbonyl)-phenyl]-benzamide], `CN(Cc1ccc(C(=O)Nc2ccc(Br)cc2C(=O)N/N=C/c2ccc(Cl)c(C(F)(F)F)c2)cc1)CC(O)c1ccc(O)cc1` (stereo not drawn) [Compound 726, N-[4-Bromo-2-(4-chloro-3-trifluoromethyl-benzylidene-hydrazinocarbonyl)-phenyl]-4-({[2-hydroxy-2-(4-hydroxy-phenyl)-ethyl]-methyl-amino}-methyl)-benzamide] is higher in pIC50: 4.65 for the first, over 5.52 for the second. The second is the more potent here.

First: Cc1ccc(/C=N/NC(=O)c2cc(Br)ccc2NC(=O)c2ccc(CN(C)CC(O)c3ccc(O)cc3)cc2)cc1C (stereo not drawn) [Compound 724, N-[4-Bromo-2-(3,4-dimethyl-benzylidene-hydrazinocarbonyl)-phenyl]-4-({[2-hydroxy-2-(4-hydroxy-phenyl)-ethyl]-methyl-amino}-methyl)-benzamide]
Second: CN(Cc1ccc(C(=O)Nc2ccc(Br)cc2C(=O)N/N=C/c2cccc(F)c2)cc1)CC(O)c1ccc(O)cc1 (stereo not drawn) [Compound 725, N-[4-Bromo-2-(3-fluoro-benzylidene-hydrazinocarbonyl)-phenyl]-4-({[2-hydroxy-2-(4-hydroxy-phenyl)-ethyl]-methyl-amino}-methyl)-benzamide]
The pIC50 of the first is 0.61 log units higher: 4.77 for the first, 4.16 for the second. The first is the more potent here.

`Cc1ccc(/C=N/NC(=O)c2cc(Br)ccc2NC(=O)c2ccc(CN3CCN(CC(=O)N4CCOCC4)CC3)cc2)cc1` [Compound 728, N-[4-Bromo-2-(4-methyl-benzylidene-hydrazinocarbonyl)-phenyl]-4-[4-(2-morpholin-4-yl-2-oxo-ethyl)-piperazin-1-ylmethyl]-benzamide] and `O=C(Nc1ccc(Br)cc1C(=O)N/N=C/c1ccc(F)cc1)c1ccc(CN2CCN(CC(=O)N3CCOCC3)CC2)cc1` [Compound 730, N-[4-Bromo-2-(4-fluoro-benzylidene-hydrazinocarbonyl)-phenyl]-4-[4-(2-morpholin-4-yl-2-oxo-ethyl)-piperazin-1-ylmethyl]-benzamide] are within 0.2 log units of each other in pIC50: 4.69 for the first, 4.81 for the second.

`Cc1cccc(/C=N/NC(=O)c2cc(Br)ccc2NC(=O)c2ccc(CN3CCN(CC(=O)N4CCOCC4)CC3)cc2)c1` [Compound 729, N-[4-Bromo-2-(3-methyl-benzylidene-hydrazinocarbonyl)-phenyl]-4-[4-(2-morpholin-4-yl-2-oxo-ethyl)-piperazin-1-ylmethyl]-benzamide] and `O=C(Nc1ccc(Br)cc1C(=O)N/N=C/c1cccc(F)c1)c1ccc(CN2CCN(CC(=O)N3CCOCC3)CC2)cc1` [Compound 731, N-[4-Bromo-2-(3-fluoro-benzylidene-hydrazinocarbonyl)-phenyl]-4-[4-(2-morpholin-4-yl-2-oxo-ethyl)-piperazin-1-ylmethyl]-benzamide] are within 0.2 log units of each other in pIC50: 4.56 for the first, 4.72 for the second.

First: COc1cccc(/C=N/NC(=O)c2cc(Br)ccc2NC(=O)c2ccc(CN3CCN(CC(=O)N4CCOCC4)CC3)cc2)c1 [Compound 732, N-[4-Bromo-2-(3-methoxy-benzylidene-hydrazinocarbonyl)-phenyl]-4-[4-(2-morpholin-4-yl-2-oxo-ethyl)-piperazin-1-ylmethyl]-benzamide]
Second: CCOCCN(CCOCC)Cc1ccc(C(=O)Nc2ccc(Br)cc2C(=O)N/N=C/c2cccc(C)c2)cc1 [Compound 735, 4-{[Bis-(2-ethoxy-ethyl)-amino]-methyl}-N-[4-bromo-2-(3-methyl-benzylidene-hydrazinocarbonyl)-phenyl]-benzamide]
The pIC50 of the first is 0.21 log units lower: 4.53 for the first, 4.74 for the second. The second is the more potent here.

`CCOCCN(CCOCC)Cc1ccc(C(=O)Nc2ccc(Br)cc2C(=O)N/N=C/c2ccc(C)c(C)c2)cc1` [Compound 733, 4-{[Bis-(2-ethoxy-ethyl)-amino]-methyl}-N-[4-bromo-2-(3,4-dimethyl-benzylidene-hydrazinocarbonyl)-phenyl]-benzamide] and `CCOCCN(CCOCC)Cc1ccc(C(=O)Nc2ccc(Br)cc2C(=O)N/N=C/c2cccc(F)c2)cc1` [Compound 737, 4-{[Bis-(2-ethoxy-ethyl)-amino]-methyl}-N-[4-bromo-2-(3-fluoro-benzylidene-hydrazinocarbonyl)-phenyl]-benzamide] cannot be ordered by pIC50: over 5.00 for the first, 5.37 for the second.

`CCOCCN(CCOCC)Cc1ccc(C(=O)Nc2ccc(Br)cc2C(=O)N/N=C/c2ccc(Cl)c(C(F)(F)F)c2)cc1` [Compound 738, 4-{[Bis-(2-ethoxy-ethyl)-amino]-methyl}-N-[4-bromo-2-(4-chloro-3-trifluoromethyl-benzylidene-hydrazinocarbonyl)-phenyl]-benzamide] was tested, and the pIC50 was 5.12.

Same assay, conditions: phosphate uptake, oocytes expressing rat NaPi-2b; 300 μM, determined from inhibition curve

First: COc1cccc(/C=N/NC(=O)c2cc(Br)ccc2NC(=O)c2ccc(CN(C)CC(O)c3ccc(O)cc3)cc2)c1 (stereo not drawn) [Compound 727, N-[4-Bromo-2-(3-methoxy-benzylidene-hydrazinocarbonyl)-phenyl]-4-({[2-hydroxy-2-(4-hydroxy-phenyl)-ethyl]-methyl-amino}-methyl)-benzamide]
Second: CCOCCN(CCOCC)Cc1ccc(C(=O)Nc2ccc(Br)cc2C(=O)N/N=C/c2ccc(OC)cc2)cc1 [Compound 739, 4-{[Bis-(2-ethoxy-ethyl)-amino]-methyl}-N-[4-bromo-2-(4-methoxy-benzylidene-hydrazinocarbonyl)-phenyl]-benzamide]
The inhibition at 300 µM of the first is higher: 67.7% for the first, 58.9% for the second.

Going from `CCOCCN(CCOCC)Cc1ccc(C(=O)Nc2ccc(Br)cc2C(=O)N/N=C/c2ccc(C)cc2)cc1` [Compound 734, 4-{[Bis-(2-ethoxy-ethyl)-amino]-methyl}-N-[4-bromo-2-(4-methyl-benzylidene-hydrazinocarbonyl)-phenyl]-benzamide] to `CCOCCN(CCOCC)Cc1ccc(C(=O)Nc2ccc(Br)cc2C(=O)N/N=C/c2ccc(F)cc2)cc1` [Compound 736, 4-{[Bis-(2-ethoxy-ethyl)-amino]-methyl}-N-[4-bromo-2-(4-fluoro-benzylidene-hydrazinocarbonyl)-phenyl]-benzamide], the inhibition at 300 µM falls from 64.9% to 61.5%.
